27 compounds from US9359297B2, “Spirolactam derivatives and uses of same” (H. Lundbeck A/S, priority 2009, dated 2016) can be followed below.

For assay [1], the target named is T1, rat metabotropic glutamate receptor 5 (rmGluR5) (Rattus norvegicus, UniProt P31424).
T1 construct: expressed in transfected cells
Briefly: Calcium mobilization (FLIPR) assay for negative allosteric modulation, EC80 glutamate, rmGluR5 in HEK 293. In kind it is cell-based. The following applies: HEK293; rmGluR5, inhibition of EC80 glutamate response; read-out: FLIPR maximum inhibition. As for the experimental part: The cDNA for rat metabotropic glutamate receptor 5 (rmGluR5) and the cDNA for human metabotropic glutamate receptor 5 (hmGluR5) were generous gifts from S. Nakanishi (Kyoto University, Kyoto, Japan). The rmGluR5 or hmGluR5 was stably expressed in a HEK 293 cell line and grown in Dulbecco's Modified Eagle Medium (DMEM) (Invitrogen, Carlsbad, Calif.) with supplements (10% bovine calf serum, 4 mM glutamine, 100 units/mL penicillin, 100 μg/mL streptomycin and 0.75 mM G1418) at 37° C., 5% CO2. Twenty-four hours prior to assay, cells were seeded into 384-well black wall microtiter plates coated with poly-D-lysine. Just prior to assay, media was aspirated and cells dye-loaded (25 μL/well) with 3 μM Fluo-4/0.01% pluronic acid in assay buffer (Hank's Balanced Saline Solution (HBSS)): 150 mM NaCl, 5 mM KCl, 1 mM CaCl2, 1 mM MgCl2, plus 20 mM N-2-Hydroxyethylpiperazine-N′-2-ethanesulfonic acid (HEPES), pH 7.4, 0.1% bovine serum albumin (BSA) and 2.5 mM probenicid) for 1 hour in 5% CO2 at 37° C. After excess dye was discarded, cells were washed in assay buffer and layered with a final volume equal to 30 μL/well. Basal fluorescence is monitored in a fluorometric imaging plate reader (FLIPR) (Molecular Devices, Sunnyvale, Calif.) with an excitation wavelength of 488 nm and an emission range of 500 to 560 nm. Laser excitation energy was adjusted so that basal fluorescence readings were approximately 10,000 relative fluorescent units. Cells were stimulated with an EC20 or an EC80 concentration of glutamate in the presence of a compound to be tested, both diluted in assay buffer, and relative fluorescent units were measured at defined intervals (exposure=0.6 sec) over a 3 min period at room temperature. Basal readings derived from negative controls were subtracted from all samples. Maximum change in fluorescence was calculated for each well. Concentration-response curves derived from the maximum change in fluorescence were analyzed by nonlinear regression (Hill equation). A negative modulator can be identified from these concentration-response curves if a compound produces a concentration dependent inhibition of the EC80 glutamate response.
In general terms: Calcium flux is commonly read through the fluorescence of an indicator in the cells.

In assay [2] the target is T2, human metabotropic glutamate receptor 5 (hmGluR5) (Homo sapiens, UniProt P41594).
T2 construct: expressed in transfected cells
T2 sequence (P41594 21-1212): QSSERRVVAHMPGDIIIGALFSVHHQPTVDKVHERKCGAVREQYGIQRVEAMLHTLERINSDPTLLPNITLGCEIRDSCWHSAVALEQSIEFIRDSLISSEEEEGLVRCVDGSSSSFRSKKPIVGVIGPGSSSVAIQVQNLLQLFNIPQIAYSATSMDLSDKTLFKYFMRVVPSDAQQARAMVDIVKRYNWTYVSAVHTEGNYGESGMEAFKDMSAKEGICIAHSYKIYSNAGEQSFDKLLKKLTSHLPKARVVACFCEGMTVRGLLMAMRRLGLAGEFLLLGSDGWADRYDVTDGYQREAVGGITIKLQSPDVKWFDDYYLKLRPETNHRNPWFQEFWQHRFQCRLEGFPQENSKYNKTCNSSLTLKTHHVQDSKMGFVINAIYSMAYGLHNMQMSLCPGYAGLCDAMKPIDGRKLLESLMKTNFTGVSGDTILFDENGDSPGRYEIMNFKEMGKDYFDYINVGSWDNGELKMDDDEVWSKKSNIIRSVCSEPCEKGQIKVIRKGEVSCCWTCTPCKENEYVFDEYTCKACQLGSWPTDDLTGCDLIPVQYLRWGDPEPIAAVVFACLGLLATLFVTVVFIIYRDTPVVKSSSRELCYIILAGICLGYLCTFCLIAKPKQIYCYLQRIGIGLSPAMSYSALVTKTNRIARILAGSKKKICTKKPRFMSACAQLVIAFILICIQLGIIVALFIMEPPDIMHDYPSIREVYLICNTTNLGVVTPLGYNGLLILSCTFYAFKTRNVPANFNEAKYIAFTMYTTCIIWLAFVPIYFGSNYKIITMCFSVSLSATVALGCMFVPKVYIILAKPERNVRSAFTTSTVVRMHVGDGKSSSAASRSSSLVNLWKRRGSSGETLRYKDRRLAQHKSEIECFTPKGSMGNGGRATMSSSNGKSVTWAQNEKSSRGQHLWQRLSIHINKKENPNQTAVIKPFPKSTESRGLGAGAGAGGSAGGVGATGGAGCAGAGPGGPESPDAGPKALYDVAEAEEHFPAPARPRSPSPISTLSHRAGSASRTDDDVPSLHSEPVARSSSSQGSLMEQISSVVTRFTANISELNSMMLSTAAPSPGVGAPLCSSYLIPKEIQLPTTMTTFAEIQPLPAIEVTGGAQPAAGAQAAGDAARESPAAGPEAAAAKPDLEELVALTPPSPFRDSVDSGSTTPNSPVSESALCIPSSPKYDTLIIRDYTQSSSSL
Briefly: Calcium mobilization (FLIPR) assay for negative allosteric modulation, EC80 glutamate, hmGluR5 in HEK 293. It is filed as cell-based. The following applies: HEK293; hmGluR5, inhibition of EC80 glutamate response; read-out: FLIPR maximum inhibition. In short, it runs like this:
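Stably transfected HEK 293 cells, Fluo-4-loaded, stimulated with EC80 glutamate plus test compound in HBSS/20 mM HEPES pH 7.4 with probenecid; FLIPR fluorescence read over 3 min at room temperature. Basal-subtracted maximum fluorescence change fitted by Hill equation; negative modulation seen as concentration-dependent inhibition of the EC80 response.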

T1 sequence (P31424 21-1203): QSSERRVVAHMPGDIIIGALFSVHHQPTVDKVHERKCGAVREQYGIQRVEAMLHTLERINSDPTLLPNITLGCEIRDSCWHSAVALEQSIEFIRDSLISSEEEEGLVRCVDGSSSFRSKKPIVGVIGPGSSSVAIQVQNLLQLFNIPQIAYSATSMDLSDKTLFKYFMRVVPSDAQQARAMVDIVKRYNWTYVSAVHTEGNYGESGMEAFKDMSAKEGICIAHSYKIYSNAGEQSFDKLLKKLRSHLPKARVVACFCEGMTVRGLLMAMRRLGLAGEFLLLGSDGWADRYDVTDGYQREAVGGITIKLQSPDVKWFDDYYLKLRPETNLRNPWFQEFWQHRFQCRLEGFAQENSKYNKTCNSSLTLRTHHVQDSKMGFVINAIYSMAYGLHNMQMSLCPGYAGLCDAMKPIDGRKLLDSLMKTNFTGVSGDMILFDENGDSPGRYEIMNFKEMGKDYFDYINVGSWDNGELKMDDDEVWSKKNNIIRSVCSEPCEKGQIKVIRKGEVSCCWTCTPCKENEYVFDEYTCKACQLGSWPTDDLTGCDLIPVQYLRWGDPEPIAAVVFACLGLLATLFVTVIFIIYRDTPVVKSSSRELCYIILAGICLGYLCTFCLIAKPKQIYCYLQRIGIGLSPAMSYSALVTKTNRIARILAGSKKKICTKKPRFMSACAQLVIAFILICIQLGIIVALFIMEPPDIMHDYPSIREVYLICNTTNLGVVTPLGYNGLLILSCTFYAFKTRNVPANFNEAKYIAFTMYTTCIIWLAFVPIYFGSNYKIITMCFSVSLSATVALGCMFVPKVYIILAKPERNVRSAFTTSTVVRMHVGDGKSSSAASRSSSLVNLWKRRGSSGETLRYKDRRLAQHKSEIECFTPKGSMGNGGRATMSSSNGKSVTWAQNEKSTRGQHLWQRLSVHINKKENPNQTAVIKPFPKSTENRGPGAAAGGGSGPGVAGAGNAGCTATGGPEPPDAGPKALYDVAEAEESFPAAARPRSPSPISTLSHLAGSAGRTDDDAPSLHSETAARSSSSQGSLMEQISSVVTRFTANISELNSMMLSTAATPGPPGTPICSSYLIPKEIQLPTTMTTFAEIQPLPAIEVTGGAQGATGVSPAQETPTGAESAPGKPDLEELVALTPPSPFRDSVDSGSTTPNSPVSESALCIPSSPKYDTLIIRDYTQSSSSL

As for `O=C(N[C@H]1CCC[C@]2(CCN(c3cccc(F)c3)C2=O)C1)c1ccccn1` (racemic) [Example 19, cis-Pyridine-2-carboxylic acid [2-(3-fluoro-phenyl)-1-oxo-2-aza-spiro[4.5]dec-7-yl]-amide], the Emax in assay [1] fell in the range of 81 to 99%.

As to `Cc1cccc(N2CC[C@]3(CCC[C@H](NC(=O)c4cccc(F)c4)C3)C2=O)n1` (racemic) [Example 27, cis-3-Fluoro-N-[2-(6-methyl-pyridin-2-yl)-1-oxo-2-aza-spiro[4.5]dec-7-yl]-benzamide], the Emax in assay [1] is 81 to 99%.

With `Cc1cccc(C(=O)N[C@H]2CCC[C@]3(CCN(c4cccc(C(F)(F)F)n4)C3=O)C2)n1` (racemic) [Example 41, cis-6-Methyl-pyridine-2-carboxylic acid [1-oxo-2-(6-trifluoromethyl-pyridin-2-yl)-2-aza-spiro[4.5]dec-7-yl]-amide], the Emax in assay [1] lay within 81 to 99%.

`Cc1cccc(C(=O)N[C@H]2CCC[C@]3(CCN(c4cc(F)cc(F)c4)C3=O)C2)n1` (racemic) [Example 42, cis-6-Methyl-pyridine-2-carboxylic acid [2-(3,5-difluoro-phenyl)-1-oxo-2-aza-spiro[4.5]dec-7-yl]-amide]: the Emax in assay [1] lay in the range of 81 to 99%.

As to `Cc1cccc(C(=O)N[C@H]2CCC[C@]3(CCN(c4ccc(F)cc4)C3=O)C2)n1` (racemic) [Example 44, cis-6-Methyl-pyridine-2-carboxylic acid [2-(4-fluoro-phenyl)-1-oxo-2-aza-spiro[4.5]dec-7-yl]-amide], the Emax in assay [1] fell in the range of 81 to 99%.

Take `Cc1cccc(C(=O)N[C@H]2CCC[C@@]3(CCN(c4cccc(Cl)c4)C3=O)C2)n1` (relative stereo) [Example 3, trans-6-Methyl-pyridine-2-carboxylic acid [2-(3-chloro-phenyl)-1-oxo-2-aza-spiro [4.5]dec-7-yl]-amide]: the Emax in assay [1] lay within 81 to 99%.

Regarding `Cc1cccc(N2CC[C@]3(CCC[C@H](NC(=O)c4ccccn4)C3)C2=O)n1` (relative stereo) [Example 7, cis-Pyridine-2-carboxylic acid [2-(6-methyl-pyridin-2-yl)-1-oxo-2-aza-spiro [4.5]dec-7-yl]-amide], the Emax in assay [1] fell in the range of 81 to 99%.

As for `N#Cc1cccc(N2CC[C@]3(CCC[C@H](NC(=O)c4ccccn4)C3)C2=O)c1` (relative stereo) [Example 9, cis-Pyridine-2-carboxylic acid [2-(3-cyano-phenyl)-1-oxo-2-aza-spiro[4.5]dec-7-yl]-amide], the Emax in assay [1] was in the range of 81 to 99%.

Take `Cc1cccc(C(=O)N[C@H]2CCC[C@]3(CCN(c4cccc(C#N)c4)C3=O)C2)n1` (relative stereo) [Example 10, cis-6-Methyl-pyridine-2-carboxylic acid [2-(3-cyano-phenyl)-1-oxo-2-aza-spiro [4.5]dec-7-yl]-amide]: the Emax in assay [1] is 81 to 99%.

As to `Cc1cncc(C(=O)N[C@H]2CCC[C@]3(CCN(c4cccc(C#N)c4)C3=O)C2)n1` (relative stereo) [Example 11, cis-6-Methyl-pyrazine-2-carboxylic acid [2-(3-cyano-phenyl)-1-oxo-2-aza-spiro [4.5]dec-7-yl]-amide], the Emax in assay [1] lay in the range of 81 to 99%.

Regarding `Cc1cncc(C(=O)N[C@H]2CCC[C@]3(CCN(c4cccc(Cl)c4)C3=O)C2)n1` (relative stereo) [Example 12, cis-6-Methyl-pyrazine-2-carboxylic acid [2-(3-chloro-phenyl)-1-oxo-2-aza-spiro [4.5]dec-7-yl]-amide], the Emax in assay [1] is 81 to 99%.

For the compound `O=C(N[C@H]1CCC[C@]2(CCN(c3cccc(Cl)c3)C2=O)C1)c1cnccn1` (relative stereo) [Example 13, cis-Pyrazine-2-carboxylic acid [2-(3-chloro-phenyl)-1-oxo-2-aza-spiro[4.5]dec-7-yl]-amide], the Emax in assay [1] fell in the range of 81 to 99%.

Take `Cn1ccc(C(=O)N[C@H]2CCC[C@]3(CCN(c4cccc(Cl)c4)C3=O)C2)n1` (relative stereo) [Example 14, cis-1-Methyl-1H-pyrazole-3-carboxylic acid [2-(3-chloro-phenyl)-1-oxo-2-aza-spiro[4.5]dec-7-yl]-amide]: the Emax in assay [1] lay within 81 to 99%.

Regarding `N#Cc1cccc(N2CC[C@]3(CCC[C@H](NC(=O)c4cccc(F)c4)C3)C2=O)c1` (relative stereo) [Example 15, cis-N-[2-(3-Cyano-phenyl)-1-oxo-2-aza-spiro[4.5]dec-7-yl]-3-fluoro-benzamide], the Emax in assay [1] fell in the range of 81 to 99%.

`N#Cc1cccc(N2CC[C@]3(CCC[C@H](NC(=O)c4cccc(Cl)c4)C3)C2=O)c1` (relative stereo) [Example 16, cis-N-[2-(3-Cyano-phenyl)-1-oxo-2-aza-spiro[4.5]dec-7-yl]-3-chloro-benzamide]: the Emax in assay [1] was 81 to 99%.

As for `Cc1cccc(C(=O)N[C@H]2CCC[C@]3(CCN(c4cccc(F)c4)C3=O)C2)n1` (relative stereo) [Example 17, cis-6-Methyl-pyridine-2-carboxylic acid [2-(3-fluoro-phenyl)-1-oxo-2-aza-spiro[4.5]dec-7-yl]-amide], the Emax in assay [1] lay in the range of 81 to 99%.

Consider `Cc1cccc(C(=O)N[C@@H]2CCC[C@@]3(CCN(c4ccc(F)cn4)C3=O)C2)n1` [Example 73, 6-Methyl-pyridine-2-carboxylic acid [(5R,7R)-2-(5-fluoro-pyridin-2-yl)-1-oxo-2-aza-spiro[4.5]dec-7-yl]-amide], for which the Emax in assay [2] was 73 to 95%.

For `Cc1cccc(C(=O)N[C@@H]2CCC[C@@]3(CCN(c4ccc(F)cc4)C3=O)C2)n1` [Example 80, 6-Methyl-pyridine-2-carboxylic acid [(5R,7R)-2-(4-fluoro-phenyl)-1-oxo-2-aza-spiro[4.5]dec-7-yl]-amide], in assay [2], the Emax is 73 to 95%.

As to `Cc1cc(C(=O)N[C@@H]2CCC[C@@]3(CCN(c4cccc(F)c4)C3=O)C2)ccn1` [Example 95, N-[(5R,7R)-2-(3-Fluoro-phenyl)-1-oxo-2-aza-spiro[4.5]dec-7-yl]-2-methyl-isonicotinamide], the Emax in assay [2] fell in the range of 73 to 95%.

For `CN(C)c1cccc(N2CC[C@]3(CCC[C@H](NC(=O)c4cccc(F)c4)C3)C2=O)c1` [Example 132, Cis-N-[(5S,7S)-2-(3-Dimethylamino-phenyl)-1-oxo-2-aza-spiro[4.5]dec-7-yl]-3-fluoro-benzamide], the Emax in assay [2] lay in the range of 47 to 93%.

For the compound `Cc1nccc(N2CC[C@@]3(CCC[C@@H](NC(=O)c4cccc(Cl)c4)C3)C2=O)n1` [Example 148, 3-Chloro-N-[(5R,7R)-2-(2-methyl-pyrimidin-4-yl)-1-oxo-2-aza-spiro[4.5]dec-7-yl]-benzamide], the Emax in assay [2] is 47 to 93%.

On to `Cc1cccc(C(=O)N[C@@H]2CCC[C@@]3(CCN(c4ccnc(C)n4)C3=O)C2)c1` [Example 152, 3-Methyl-N-[(5R,7R)-2-(2-methyl-pyrimidin-4-yl)-1-oxo-2-aza-spiro[4.5]dec-7-yl]-benzamide], for which, in assay [2], the Emax was in the range of 47 to 93%.

Regarding `Cc1cccc(C(=O)N[C@@H]2CCC[C@@]3(CCN(c4ccnc(C(F)(F)F)n4)C3=O)C2)n1` [Example 156, 6-Methyl-pyridine-2-carboxylic acid[(5R,7R)-1-oxo-2-(2-trifluoromethyl-pyrimidin-4-yl)-2-aza-spiro[4.5]dec-7-yl]-amide], the Emax in assay [2] was 47 to 93%.

On to `CN1CCC(N2CCC3(CCCC(NC(=O)c4cccc(F)c4)C3)C2=O)CC1` (stereo not drawn) [Example 157, 3-Fluoro-N-[2-(1-methyl-piperidin-4-yl)-1-oxo-2-aza-spiro[4.5]dec-7-yl]-benzamide], for which the Emax in assay [2] lay in the range of 47 to 93%.

Turning to `Cn1ccc(N2CCC3(CCCC(NC(=O)c4cccc(F)c4)C3)C2=O)n1` (stereo not drawn) [Example 158, 3-Fluoro-N-[2-(1-methyl-1H-pyrazol-3-yl)-1-oxo-2-aza-spiro[4.5]dec-7-yl]-benzamide], in assay [2], the Emax fell in the range of 47 to 93%.

With `Cc1nc(C(=O)N[C@@H]2CCC[C@@]3(CCN(c4cc(F)cc(F)c4)C3=O)C2)cc(=O)[nH]1` [Example 159, 2-Methyl-6-oxo-1,6-dihydro-pyrimidine-4-carboxylic acid [(5R,7R)-2-(3,5-difluoro-phenyl)-1-oxo-2-aza-spiro[4.5]dec-7-yl]amide], in assay [2], the Emax lay within 47 to 93%.

With `CC1(F)CC(NC(=O)c2ccccn2)CC2(CCN(c3cccc(F)c3)C2=O)C1` (stereo not drawn) [Example 160, Pyridine-2-carboxylic acid [9-fluoro-2-(3-fluoro-phenyl)-9-methyl-1-oxo-2-aza-spiro[4.5]dec-7-yl]-amide], the Emax in assay [2] fell in the range of 47 to 93%.
